# In ChEMBL document CHEMBL1201862, “PubChem BioAssay data set” (2004):
# The source made the active and inactive calls.
# Tests used:
# [1] = target: Mu-type opioid receptor (Homo sapiens, UniProt P35372); assay type: functional, cell-based;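 further: U2OS cells with beta-arrestin recruitment to OPRM1 by beta-gal complementation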
# [2] = target: 5-hydroxytryptamine receptor 2A (Mus musculus, UniProt P35363); assay type: functional, cell-based;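 further: CHO-K1 cells with tagged receptor and beta-arrestin; agonist potency measured as compound-induced activation of the receptor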
# 5-hydroxytryptamine receptor 2A, sequence (P35363 whole entry): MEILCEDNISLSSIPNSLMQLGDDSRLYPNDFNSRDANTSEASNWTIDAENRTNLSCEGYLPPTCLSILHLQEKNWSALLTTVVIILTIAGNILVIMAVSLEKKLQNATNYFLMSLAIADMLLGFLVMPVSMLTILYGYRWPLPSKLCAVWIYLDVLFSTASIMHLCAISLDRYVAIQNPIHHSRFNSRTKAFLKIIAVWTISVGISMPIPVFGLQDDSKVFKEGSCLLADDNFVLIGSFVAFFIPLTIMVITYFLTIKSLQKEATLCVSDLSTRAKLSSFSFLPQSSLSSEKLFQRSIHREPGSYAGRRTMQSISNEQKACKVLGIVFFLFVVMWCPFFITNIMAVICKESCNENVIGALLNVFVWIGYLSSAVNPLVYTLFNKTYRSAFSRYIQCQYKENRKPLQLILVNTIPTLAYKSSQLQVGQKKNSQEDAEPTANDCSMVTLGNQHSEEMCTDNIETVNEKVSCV
# [3] = alpha-synuclein stem-loop luciferase translation blockers – H4 neuroglioma cells, luminescence, confirmation (AID 1988); assay type: functional, cell-based
# [4] = luciferase reporter signal suppression in cells – H4 neuroglioma cells, luminescence, dose response (AID 1990); assay type: functional, cell-based
# [5] = Luminescence Cell-Based Dose Response HTS to Identify Inhibitors of 5'UTR Stem-Loop Driven Prion Protein mRNA Translation in H4 Neuroglioblastoma Cells. [Related pubchem assays: 1827 (Project Summary), 1813 (Primary HTS)]; assay type: functional
# [6] = target: T1, Heat shock factor protein 1 (Mus musculus, UniProt P38532); experiment: enhancement of HSF1-driven luciferase signal – cell-based, NIH3T3, luminescence, dose retest, confirmation (AID 435004); assay type: functional;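 further: stress induced by proteasome inhibitor MG132 added 30 min after compound; luciferase reporter driven by HSF1 response element in NIH3T3 cells; actives raise luminescence as potentiators of the MG132 stress response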
# T1 sequence (P38532 whole entry): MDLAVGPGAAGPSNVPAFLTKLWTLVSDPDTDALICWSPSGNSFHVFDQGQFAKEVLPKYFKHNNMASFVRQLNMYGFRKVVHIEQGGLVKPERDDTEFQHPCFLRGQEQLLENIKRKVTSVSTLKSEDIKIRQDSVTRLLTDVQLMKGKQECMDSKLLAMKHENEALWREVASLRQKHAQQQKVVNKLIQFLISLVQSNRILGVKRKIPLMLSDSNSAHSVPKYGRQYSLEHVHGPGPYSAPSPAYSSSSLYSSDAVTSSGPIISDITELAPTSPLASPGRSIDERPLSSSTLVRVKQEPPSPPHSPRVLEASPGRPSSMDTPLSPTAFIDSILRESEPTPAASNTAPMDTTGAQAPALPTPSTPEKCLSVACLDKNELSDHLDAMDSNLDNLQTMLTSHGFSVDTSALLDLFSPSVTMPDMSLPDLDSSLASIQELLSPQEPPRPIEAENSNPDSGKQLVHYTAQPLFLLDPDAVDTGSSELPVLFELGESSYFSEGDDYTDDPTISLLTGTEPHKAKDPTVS
# [7] = target: T2, Type-1 angiotensin II receptor (Homo sapiens, UniProt P30556); experiment: antagonism of angiotensin II type 1 receptor – cell-based, uHTS hits, selectivity assay for APJ receptor antagonist project, dose response (AID 463214); assay type: functional;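 further: antagonist potency against angiotensin II stimulated AT1 response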
# T2 sequence (P30556 whole entry): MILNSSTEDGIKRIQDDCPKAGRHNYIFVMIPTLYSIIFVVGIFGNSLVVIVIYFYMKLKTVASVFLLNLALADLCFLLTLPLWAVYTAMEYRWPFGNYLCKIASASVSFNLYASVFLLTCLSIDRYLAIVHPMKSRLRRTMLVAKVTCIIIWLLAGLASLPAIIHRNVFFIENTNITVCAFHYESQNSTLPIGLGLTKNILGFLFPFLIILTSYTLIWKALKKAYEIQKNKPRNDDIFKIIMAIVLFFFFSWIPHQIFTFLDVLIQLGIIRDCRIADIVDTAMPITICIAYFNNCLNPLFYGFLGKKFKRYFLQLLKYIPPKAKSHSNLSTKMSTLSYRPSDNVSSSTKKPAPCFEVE
# [8] = target: Beta-galactosidase (Escherichia coli, UniProt Q8VNN2); experiment: PubChem AID 485352; assay type: functional
# Beta-galactosidase, sequence (Q8VNN2 whole entry): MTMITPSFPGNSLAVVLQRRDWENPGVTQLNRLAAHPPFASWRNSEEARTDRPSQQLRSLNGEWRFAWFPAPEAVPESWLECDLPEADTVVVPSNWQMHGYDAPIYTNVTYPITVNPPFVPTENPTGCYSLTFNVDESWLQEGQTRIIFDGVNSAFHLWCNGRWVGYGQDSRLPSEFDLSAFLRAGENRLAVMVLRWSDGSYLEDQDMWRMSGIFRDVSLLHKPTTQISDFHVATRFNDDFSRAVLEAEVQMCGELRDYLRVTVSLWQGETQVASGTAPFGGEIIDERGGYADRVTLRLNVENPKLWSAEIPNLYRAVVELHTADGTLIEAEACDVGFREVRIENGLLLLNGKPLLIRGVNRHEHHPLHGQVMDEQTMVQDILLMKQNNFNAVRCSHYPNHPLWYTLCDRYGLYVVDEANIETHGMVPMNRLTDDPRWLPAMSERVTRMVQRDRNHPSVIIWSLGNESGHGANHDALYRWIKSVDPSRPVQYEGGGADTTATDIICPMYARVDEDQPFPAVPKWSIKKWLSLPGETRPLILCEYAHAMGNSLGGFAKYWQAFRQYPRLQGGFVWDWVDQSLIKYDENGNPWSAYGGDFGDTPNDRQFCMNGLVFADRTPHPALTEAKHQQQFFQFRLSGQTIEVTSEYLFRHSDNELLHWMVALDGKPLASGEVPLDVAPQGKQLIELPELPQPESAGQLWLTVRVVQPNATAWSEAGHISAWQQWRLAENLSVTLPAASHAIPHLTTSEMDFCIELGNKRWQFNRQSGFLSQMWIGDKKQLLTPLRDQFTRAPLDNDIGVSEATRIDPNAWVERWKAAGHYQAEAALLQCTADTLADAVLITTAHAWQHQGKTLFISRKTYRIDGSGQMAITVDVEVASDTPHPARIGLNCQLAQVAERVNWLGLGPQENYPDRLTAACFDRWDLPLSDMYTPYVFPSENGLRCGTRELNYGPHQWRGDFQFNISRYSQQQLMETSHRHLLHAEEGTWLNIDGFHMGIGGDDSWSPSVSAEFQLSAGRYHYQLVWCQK
# [9] = target: Large T antigen (Simian virus 40, UniProt P03070); assay type: functional, Betapolyomavirus macacae;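 further: Confirmatory-stage PubChem screen for compounds that inhibit SV40 T antigen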
# Large T antigen, sequence (P03070 whole entry): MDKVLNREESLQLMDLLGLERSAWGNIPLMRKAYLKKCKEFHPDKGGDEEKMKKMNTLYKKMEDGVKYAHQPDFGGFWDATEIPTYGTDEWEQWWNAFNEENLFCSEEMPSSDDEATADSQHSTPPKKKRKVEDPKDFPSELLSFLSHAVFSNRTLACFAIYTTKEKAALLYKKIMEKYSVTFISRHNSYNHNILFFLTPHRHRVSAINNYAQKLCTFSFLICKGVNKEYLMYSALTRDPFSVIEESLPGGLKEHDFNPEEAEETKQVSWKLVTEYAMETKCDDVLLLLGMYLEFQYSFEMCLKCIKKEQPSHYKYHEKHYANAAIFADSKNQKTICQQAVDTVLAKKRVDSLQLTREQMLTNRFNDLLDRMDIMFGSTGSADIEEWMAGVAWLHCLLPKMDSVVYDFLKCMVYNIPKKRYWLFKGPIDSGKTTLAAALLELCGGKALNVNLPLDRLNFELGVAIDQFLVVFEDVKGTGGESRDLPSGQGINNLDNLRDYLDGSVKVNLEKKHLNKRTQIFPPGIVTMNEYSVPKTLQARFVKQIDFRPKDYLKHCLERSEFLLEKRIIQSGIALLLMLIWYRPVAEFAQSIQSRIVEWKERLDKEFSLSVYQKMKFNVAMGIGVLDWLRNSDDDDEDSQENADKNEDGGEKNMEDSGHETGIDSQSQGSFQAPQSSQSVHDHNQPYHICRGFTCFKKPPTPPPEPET
# [10] = target: SWI/SNF-related matrix-associated actin-dependent regulator of chromatin subfamily A member 2 (Homo sapiens, UniProt P51531); experiment: Luminescence-based cell-based high throughput dose response assay to identify activators of the function of SWI/SNF related, matrix associated, actin dependent regulator of chromatin, subfamily a, member 2 (SMARCA2, BRM).; assay type: functional
# [11] = target: Photoreceptor-specific nuclear receptor (Homo sapiens, UniProt Q9Y5X4); assay type: functional, cell-based;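 further: CHO-S cells with Gal4-NCOR and VP16-NR2E3 two-hybrid luciferase reporter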
# Photoreceptor-specific nuclear receptor, sequence (Q9Y5X4 whole entry, the tested form may be a part): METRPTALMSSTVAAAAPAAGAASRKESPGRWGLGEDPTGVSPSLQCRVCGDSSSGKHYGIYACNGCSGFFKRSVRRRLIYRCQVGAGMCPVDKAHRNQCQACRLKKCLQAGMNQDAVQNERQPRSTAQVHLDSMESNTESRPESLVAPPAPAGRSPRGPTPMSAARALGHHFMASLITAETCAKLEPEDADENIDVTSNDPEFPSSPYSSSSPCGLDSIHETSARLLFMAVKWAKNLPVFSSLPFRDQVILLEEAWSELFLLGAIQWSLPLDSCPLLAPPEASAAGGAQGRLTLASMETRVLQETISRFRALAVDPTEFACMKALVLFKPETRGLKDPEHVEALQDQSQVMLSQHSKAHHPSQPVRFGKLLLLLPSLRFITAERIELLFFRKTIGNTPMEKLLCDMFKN
# [12] = Counterscreen for activators of the function of SWI/SNF related, matrix associated, actin dependent regulator of chromatin, subfamily a, member 2 (SMARCA2, BRM): Luminescence-based cell-based high throughput dose response assay to identify non-selective compounds using the VP16 reporter assay.; assay type: functional
# [13] = target: T3, Adenosylmethionine-8-amino-7-oxononanoate aminotransferase (Mycobacterium tuberculosis, UniProt P9WQ81); experiment: Mycobacterium tuberculosis BioA enzyme inhibitor Measured in Biochemical System Using Plate Reader - 2163-02_Inhibitor_Dose_CherryPick_Activity.; assay type: functional, Mycobacterium tuberculosis UT205
# T3 sequence (P9WQ81 whole entry): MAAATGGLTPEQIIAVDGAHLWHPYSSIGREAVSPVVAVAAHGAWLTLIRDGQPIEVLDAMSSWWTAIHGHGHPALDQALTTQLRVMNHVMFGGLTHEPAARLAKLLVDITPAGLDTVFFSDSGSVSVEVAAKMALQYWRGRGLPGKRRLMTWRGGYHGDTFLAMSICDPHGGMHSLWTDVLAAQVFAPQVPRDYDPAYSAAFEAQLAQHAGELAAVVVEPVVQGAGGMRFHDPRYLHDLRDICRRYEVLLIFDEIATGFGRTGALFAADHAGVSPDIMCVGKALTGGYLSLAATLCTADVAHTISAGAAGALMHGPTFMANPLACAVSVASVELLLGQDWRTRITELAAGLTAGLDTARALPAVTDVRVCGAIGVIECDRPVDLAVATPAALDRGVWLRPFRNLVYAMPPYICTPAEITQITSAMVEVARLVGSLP
# [14] = target: T4, Beta-lactamase (Pseudomonas aeruginosa, UniProt Q79MP6); experiment: inhibition of IMP-1 beta-lactamase activity – biochemical, epi-absorbance, selectivity assay for VIM-2 inhibitor project, dose response (AID 1920)
# T4 sequence (Q79MP6 whole entry): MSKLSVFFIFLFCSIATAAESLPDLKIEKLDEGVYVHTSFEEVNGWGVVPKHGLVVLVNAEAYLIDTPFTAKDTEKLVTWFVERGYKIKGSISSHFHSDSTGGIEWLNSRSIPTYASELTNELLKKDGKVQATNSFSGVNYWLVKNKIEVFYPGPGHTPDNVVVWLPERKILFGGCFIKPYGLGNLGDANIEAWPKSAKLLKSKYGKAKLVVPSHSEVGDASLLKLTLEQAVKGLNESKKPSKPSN
# [15] = target: Beta-lactamase (Salmonella choleraesuis (strain SC-B67), UniProt Q5J463); experiment: Epi-absorbance-based counterscreen for selective VIM-2 inhibitors: dose response biochemical high throughput screening assay to identify inhibitors of TEM-1 serine-beta-lactamase.
# Beta-lactamase (Salmonella choleraesuis (strain SC-B67), UniProt Q5J463), sequence (Q5J463 whole entry): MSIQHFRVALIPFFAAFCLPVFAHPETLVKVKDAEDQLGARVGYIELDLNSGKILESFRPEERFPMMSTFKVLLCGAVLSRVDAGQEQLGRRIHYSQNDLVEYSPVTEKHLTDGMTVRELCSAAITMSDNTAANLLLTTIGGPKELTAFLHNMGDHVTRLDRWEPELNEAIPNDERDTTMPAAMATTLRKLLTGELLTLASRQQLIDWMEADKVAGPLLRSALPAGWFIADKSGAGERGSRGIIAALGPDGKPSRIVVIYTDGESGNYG
# [16] = target: T4, Beta-lactamase; experiment: […] counterscreen for selective VIM-2 inhibitors: dose response biochemical high throughput screening assay to identify inhibitors of IMP-1 metallo-beta-lactamase.
# [17] = target: T5, Nuclear receptor subfamily 0 group B member 1 (Homo sapiens, UniProt P51843); assay type: functional, cell-based;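 further: HEK293T cells transfected with SF-1 and DAX-1 plus StAR promoter luciferase reporter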
# T5 sequence (P51843 whole entry): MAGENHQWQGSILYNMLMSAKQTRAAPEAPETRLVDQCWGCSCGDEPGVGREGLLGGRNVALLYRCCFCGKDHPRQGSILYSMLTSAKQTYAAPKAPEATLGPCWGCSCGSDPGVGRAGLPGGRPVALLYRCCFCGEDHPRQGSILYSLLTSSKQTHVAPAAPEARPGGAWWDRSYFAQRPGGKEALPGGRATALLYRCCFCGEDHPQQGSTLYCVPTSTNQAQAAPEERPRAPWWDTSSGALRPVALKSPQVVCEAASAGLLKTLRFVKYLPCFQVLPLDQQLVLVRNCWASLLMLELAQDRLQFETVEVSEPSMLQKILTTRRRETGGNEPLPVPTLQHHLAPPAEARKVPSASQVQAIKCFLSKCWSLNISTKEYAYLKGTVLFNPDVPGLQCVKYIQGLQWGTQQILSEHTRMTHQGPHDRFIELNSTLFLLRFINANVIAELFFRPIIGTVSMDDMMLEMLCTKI
# [18] = Luminescence Cell-Based Dose Confirmation HTS to Identify Inhibitors of Platelet Dense Granule Release. [Related pubchem assays: 1663 (Primary HTS), 1678 (Summary of Project)]; assay type: functional
# [19] = cells; assay type: functional, cell-based
# [20] = target: Luciferin 4-monooxygenase (Photinus pyralis, UniProt P08659); experiment: inhibition of purified Photinus pyralis luciferase – biochemical, luminescence, dose response (AID 1891)
# Luciferin 4-monooxygenase, sequence (P08659 whole entry): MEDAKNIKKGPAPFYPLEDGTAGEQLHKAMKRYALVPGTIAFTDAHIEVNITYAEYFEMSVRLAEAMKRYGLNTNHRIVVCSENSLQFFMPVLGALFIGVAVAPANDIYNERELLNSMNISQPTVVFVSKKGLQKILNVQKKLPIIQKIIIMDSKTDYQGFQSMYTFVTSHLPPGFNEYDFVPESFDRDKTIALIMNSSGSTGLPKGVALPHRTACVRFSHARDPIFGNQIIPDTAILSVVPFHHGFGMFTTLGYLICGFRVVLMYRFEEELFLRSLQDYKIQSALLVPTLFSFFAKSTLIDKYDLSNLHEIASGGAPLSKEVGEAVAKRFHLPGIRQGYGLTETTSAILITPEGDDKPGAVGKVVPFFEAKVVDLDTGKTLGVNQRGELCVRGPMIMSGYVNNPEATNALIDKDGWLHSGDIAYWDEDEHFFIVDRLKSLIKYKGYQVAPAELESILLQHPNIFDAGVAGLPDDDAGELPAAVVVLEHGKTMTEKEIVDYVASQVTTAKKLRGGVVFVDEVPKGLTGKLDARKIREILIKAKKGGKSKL
# Mu-type opioid receptor, sequence (P35372 whole entry): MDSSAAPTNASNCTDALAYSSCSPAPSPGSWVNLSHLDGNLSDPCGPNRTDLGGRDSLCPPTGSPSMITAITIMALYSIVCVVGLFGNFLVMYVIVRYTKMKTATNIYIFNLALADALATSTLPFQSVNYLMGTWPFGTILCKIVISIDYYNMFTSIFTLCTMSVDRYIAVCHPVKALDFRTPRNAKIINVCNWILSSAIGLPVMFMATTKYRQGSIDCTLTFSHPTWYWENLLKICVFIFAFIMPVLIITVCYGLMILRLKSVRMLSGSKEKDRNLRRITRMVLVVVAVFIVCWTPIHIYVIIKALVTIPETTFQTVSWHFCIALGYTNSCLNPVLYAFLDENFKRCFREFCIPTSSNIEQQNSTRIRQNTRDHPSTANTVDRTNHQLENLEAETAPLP
compound,measurement,setting,value
CC1(C)C(C=C(Cl)Cl)C1C(=O)N1CCN(Cc2ccccc2)CC1 (stereo not given),EC50,[1],92.5 µM (inactive)
same,EC50,[2],1.21 µM (active)
O=C(CCN1CCN(c2ccccc2F)CC1)Nc1ccc2c(c1)OCO2,EC50,[3],> 120 µM (not active)
same,EC50,[4],> 120 µM (not active)
same,EC50,[1],92.5 µM (inactive)
same,EC50,[5],> 120 µM (not active)
same,EC50,[2],76.1 µM (inactive)
CCSC1(SCC)N=C(N)C2(C#N)C(c3ccc(OC)c(OC)c3OC)C12C#N (stereo not given),EC50,[6],6.63 µM (active)
same,IC50,[7],27.5 µM (not active)
same,EC50,[8],> 40 µM (inactive)
same,IC50,[9],> 100 µM (active)
O=C(CN1C(=O)C2CC=CCC2C1=O)OCC(=O)c1ccc(Cl)c([N+](=O)[O-])c1 (stereo not given),IC50,[7],16.3 µM (active)
same,EC50,[8],> 40 µM (inactive)
COc1cccc(N2CCN(c3nc(O)cc(-c4ccccc4C)n3)CC2)c1,EC50,[10],> 91.2 µM (inactive)
same,IC50,[11],0.0942 µM (active)
same,EC50,[12],> 91.2 µM (inactive)
Cc1ccc(NC(=O)CSc2nc(=O)n(CCCN3CCOCC3)c3c2CCCC3)cc1F,AC50,[13],3.18 µM (active)
COc1ccccc1NC(=O)N[C@@H]1CC[C@H](CCn2cc(-c3cccnc3)nn2)O[C@H]1CO,AC50,[13],2.59 µM (active)
O=C(O)Cn1cccc1C(=O)c1ccccc1,IC50,[14],> 59.6 µM (inactive)
same,IC50,[15],> 59.6 µM (inactive)
same,IC50,[16],> 59.6 µM (inactive)
C=C[C@@]1(C)CC(=O)[C@]2(O)[C@@]3(C)[C@@H](O)CCC(C)(C)[C@@H]3[C@H](O)[C@H](OC(C)=O)[C@@]2(C)O1 [COLFORSIN],IC50,[17],1.73 µM (active)
same,EC50,[18],< 0.088 µM (active)
same,IC50,[19],> 67.5 µM (inactive)
same,EC50,[20],> 112 µM (not active)
